Source: patent publication US9624182B2, “Compounds as lysophosphatidic acid receptor antagonists” (Amira Pharmaceuticals, Inc., priority 2009, dated 2017)

Target: T1, human LPA1 (Homo sapiens, UniProt Q92633)
T1 construct: the full-length cDNA for human LPA1 was obtained by PCR of the reverse transcription reaction; expressed in transfected cells
Test: LPA1 calcium flux assay
Format: cell-based
Conditions: CHO cells expressing human LPA1, stimulated with 10 nM LPA; read-out: HLPA1 Ca Flux IC50
Procedure, shortened: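 CHO cells stably expressing cloned human LPA1, serum-starved overnight, loaded with Calcium 4 dye 1 h at 37 °C in HBSS/20 mM Hepes with 0.3% fatty-acid-free HSA. Compounds preincubated 30 min at room temperature, then cells stimulated with 10 nM LPA; intracellular Ca2+ read by fluorescence. IC50 from titration curves.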

T1 sequence (Q92633 whole entry): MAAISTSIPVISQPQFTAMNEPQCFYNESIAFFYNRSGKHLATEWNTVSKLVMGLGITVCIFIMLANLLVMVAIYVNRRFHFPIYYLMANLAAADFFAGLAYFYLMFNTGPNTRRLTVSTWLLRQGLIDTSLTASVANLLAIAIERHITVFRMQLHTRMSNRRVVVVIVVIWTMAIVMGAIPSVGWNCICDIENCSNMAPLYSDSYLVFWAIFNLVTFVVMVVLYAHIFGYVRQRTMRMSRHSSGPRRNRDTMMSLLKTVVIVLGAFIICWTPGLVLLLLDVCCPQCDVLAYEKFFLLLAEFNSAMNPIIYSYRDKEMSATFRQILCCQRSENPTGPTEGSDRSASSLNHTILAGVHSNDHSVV

| IC50 | SMILES |
| --- | --- |
| 1000 to 50000 nM | CCCC(O)c1c(C)noc1-c1ccc(-c2ccc(C3(C(=O)O)CC3)cc2)cc1 (centres unmarked) [Compound 1-166, 1-{4′-[4-(1-Hydroxy-butyl)-3-methyl-isoxazol-5-yl]-biphenyl-4-yl}-cyclopropanecarboxylic acid] |
| < 300 nM | Cc1noc(-c2ccc(-c3ccc(CC(=O)O)cc3)cc2)c1CC(F)(F)CCc1ccccc1 [Compound 1-170, {4′-[4-(2,2-Difluoro-4-phenyl-butyl)-3-methyl-isoxazol-5-yl]-biphenyl-4-yl}-acetic acid] |
| 300 to 1000 nM | CCC(C(=O)O)c1ccc(-c2ccc(-c3onc(C)c3C(O)CCCc3ccccc3C(F)(F)F)cc2)cc1 (centres unmarked) [Compound 1-171, 2-(4′-{4-[1-Hydroxy-4-(2-trifluoromethyl-phenyl)-butyl]-3-methyl-isoxazol-5-yl}-biphenyl-4-yl)-butyric acid] |
| < 300 nM | Cc1noc(-c2ccc(-c3ccc(C4(CC(=O)O)CC4)cc3)cc2)c1CC(F)(F)CCc1ccccc1 [Compound 1-175, (1-{4′-[4-(2,2-Difluoro-4-phenyl-butyl)-3-methyl-isoxazol-5-yl]-biphenyl-4-yl}-cyclopropyl)-acetic acid] |
| 300 to 1000 nM | Cc1noc(-c2ccc(-c3ccc(CC(=O)O)cc3)cc2)c1NC(C)CCc1cccc(C(F)(F)F)c1 (centres unmarked) [Compound 1-181, (4′-{3-Methyl-4-[1-methyl-3-(3-trifluoromethyl-phenyl)-propylamino]-isoxazol-5-yl}-biphenyl-4-yl)-acetic acid] |
| < 300 nM | Cc1noc(-c2ccc(-c3ccc(CC(=O)O)cc3)cc2)c1NC(C)CCc1cccc(Cl)c1 (centres unmarked) [Compound 1-182, (4′-{4-[3-(3-Chloro-phenyl)-1-methyl-propylamino]-3-methyl-isoxazol-5-yl}-biphenyl-4-yl)-acetic acid] |
| < 300 nM | Cc1noc(-c2ccc(-c3ccc(C4(CC(=O)O)CC4)cc3)cc2)c1NC(C)CCc1cccc(C(F)(F)F)c1 (centres unmarked) [Compound 1-183, [1-(4′-{3-Methyl-4-[1-methyl-3-(3-trifluoromethyl-phenyl)-propylamino]-isoxazol-5-yl}-biphenyl-4-yl)-cyclopropyl]-acetic acid] |
| < 300 nM | Cc1noc(-c2ccc(-c3ccc(C4(CC(=O)O)CC4)cc3)cc2)c1NC(C)CCc1cccc(Cl)c1 (centres unmarked) [Compound 1-184, [1-(4′-{4-[3-(3-Chloro-phenyl)-1-methyl-propylamino]-3-methyl-isoxazol-5-yl}-biphenyl-4-yl)-cyclopropyl]-acetic acid] |
| < 300 nM | Cc1noc(-c2ccc(-c3ccc(C4(CC(=O)O)CC4)cc3)cc2)c1NC(C)CCc1cccc(F)c1 (centres unmarked) [Compound 1-185, [1-(4′-{4-[3-(3-Fluoro-phenyl)-1-methyl-propylamino]-3-methyl-isoxazol-5-yl}-biphenyl-4-yl)-cyclopropyl]-acetic acid] |
| < 300 nM | Cc1noc(-c2ccc(-c3ccc(C4(C(=O)O)CC4)cc3)cc2)c1C(O)CN[C@H]1CCc2ccccc21 (stereo partly drawn) [Compound 1-187, 1-(4′-{4-[1-Hydroxy-2-((S)-indan-1-ylamino)-ethyl]-3-methyl-isoxazol-5-yl}-biphenyl-4-yl)-cyclopropanecarboxylic acid] |
| < 300 nM | Cc1noc(-c2ccc(-c3ccc(C(Cc4ccccc4)C(=O)O)cc3)cc2)c1C(O)CCCc1ccccc1 (centres unmarked) [Compound 1-188, 2-{4′-[4-(1-Hydroxy-4-phenyl-butyl)-3-methyl-isoxazol-5-yl]-biphenyl-4-yl}-3-phenyl-propionic acid] |
| < 300 nM | Cc1noc(-c2ccc(-c3ccc(C4(C(=O)O)CC4)cc3)cc2)c1C(CO)NCc1ccccc1 (centres unmarked) [Compound 1-189, 1-{4′-[4-(1-Benzylamino-2-hydroxy-ethyl)-3-methyl-isoxazol-5-yl]-biphenyl-4-yl}-cyclopropanecarboxylic acid] |
| < 300 nM | Cc1noc(-c2ccc(-c3ccc(C4(C(=O)O)CC4)cc3)cc2)c1C(O)CN (centres unmarked) [Compound 1-190, 1-{4′-[4-(2-Amino-1-hydroxy-ethyl)-3-methyl-isoxazol-5-yl]-biphenyl-4-yl}-cyclopropanecarboxylic acid] |
| < 300 nM | Cc1noc(-c2ccc(-c3ccc(CCC(=O)O)cc3)cc2)c1CSCCc1ccccc1 [Compound 1-191, 3-[4′-(3-Methyl-4-phenethylsulfanylmethyl-isoxazol-5-yl)-biphenyl-4-yl]-propionic acid] |
| < 300 nM | Cc1noc(-c2ccc(-c3ccc(CCC(=O)O)cc3)cc2)c1NC(C)CCc1cccc(C(F)(F)F)c1 (centres unmarked) [Compound 1-192, 3-(4′-{3-Methyl-4-[1-methyl-3-(3-trifluoromethyl-phenyl)-propylamino]-isoxazol-5-yl}-biphenyl-4-yl)-propionic acid] |
| < 300 nM | Cc1noc(-c2ccc(-c3ccc(CCC(=O)O)cc3)cc2)c1NC(C)CCc1cccc(Cl)c1 (centres unmarked) [Compound 1-193, 3-(4′-{4-[3-(3-Chloro-phenyl)-1-methyl-propylamino]-3-methyl-isoxazol-5-yl}-biphenyl-4-yl)-propionic acid] |

| IC50 | SMILES |
| --- | --- |
| 1000 to 50000 nM | Cc1cnn(Cc2c(C)noc2-c2ccc(-c3ccc(C4(C(=O)O)CC4)cc3)cc2)c1 [Compound 1-194, 1-{4′-[3-Methyl-4-(4-methyl-pyrazol-1-ylmethyl)-isoxazol-5-yl]-biphenyl-4-yl}-cyclopropanecarboxylic acid] |
| 1000 to 50000 nM | Cc1ccc2nc(NCc3c(C)noc3-c3ccc(-c4ccc(C5(C(=O)O)CC5)cc4)cc3)sc2c1 [Compound 1-195, 1-(4′-{3-Methyl-4-[(6-methyl-benzothiazol-2-ylamino)-methyl]-isoxazol-5-yl}-biphenyl-4-yl)-cyclopropanecarboxylic acid] |
| 1000 to 50000 nM | Cc1noc(-c2ccc(-c3ccc(C4(C(=O)O)CC4)cc3)cc2)c1Cn1cc(Br)cn1 [Compound 1-196, 1-{4′-[4-(4-Bromo-pyrazol-1-ylmethyl)-3-methyl-isoxazol-5-yl]-biphenyl-4-yl}-cyclopropanecarboxylic acid] |
| < 300 nM | Cc1noc(-c2ccc(-c3ccc(CCC(=O)O)cc3)cc2)c1C(O)CCCc1ccccc1 (centres unmarked) [Compound 1-197, 3-{4′-[4-(1-Hydroxy-4-phenyl-butyl)-3-methyl-isoxazol-5-yl]-biphenyl-4-yl}-propionic acid] |
| < 300 nM | Cc1noc(-c2ccc(-c3cccc(CCC(=O)O)c3)cc2)c1C(O)CCCc1ccccc1 (centres unmarked) [Compound 1-200, 3-{4′-[4-(1-Hydroxy-4-phenyl-butyl)-3-methyl-isoxazol-5-yl]-biphenyl-3-yl}-propionic acid] |
| 1000 to 50000 nM | Cc1noc(-c2ccc(-c3ccccc3CCC(=O)O)cc2)c1C(O)CCCc1ccccc1 (centres unmarked) [Compound 1-201, 3-{4′-[4-(1-Hydroxy-4-phenyl-butyl)-3-methyl-isoxazol-5-yl]-biphenyl-2-yl}-propionic acid] |
| 1000 to 50000 nM | Cc1noc(-c2ccc(-c3ccc(C4(C(=O)O)CC4)cc3)cc2)c1C(=O)C[S+]([O-])Cc1ccccc1 (centres unmarked) [Compound 1-202, 1-{4′-[3-Methyl-4-(2-phenylmethanesulfinyl-acetyl)-isoxazol-5-yl]-biphenyl-4-yl}-cyclopropanecarboxylic acid] |
| 1000 to 50000 nM | Cc1noc(-c2ccc(-c3ccccc3C3(C(=O)O)CC3)cc2)c1C(O)CCCc1ccccc1 (centres unmarked) [Compound 1-203, 1-{4′-[4-(1-Hydroxy-4-phenyl-butyl)-3-methyl-isoxazol-5-yl]-biphenyl-2-yl}-cyclopropanecarboxylic acid] |
| < 300 nM | CC(C)=CCCC(C)Nc1c(C)noc1-c1ccc(-c2ccc(C3(CC(=O)O)CC3)cc2)cc1 (centres unmarked) [Compound 1-204, (1-{4′-[4-(1,5-Dimethyl-hex-4-enylamino)-3-methyl-isoxazol-5-yl]-biphenyl-4-yl}-cyclopropyl)-acetic acid] |
| < 300 nM | CC(C)=CCCC(C)Nc1c(C)noc1-c1ccc(-c2ccc(C3(C(=O)O)CC3)cc2)cc1 (centres unmarked) [Compound 1-205, 1-{4′-[4-(1,5-Dimethyl-hex-4-enylamino)-3-methyl-isoxazol-5-yl]-biphenyl-4-yl}-cyclopropanecarboxylic acid] |
| < 300 nM | Cc1noc(-c2ccc(-c3ccc(C4(CC(=O)O)CC4)cc3)cc2)c1NC(C)c1ccc2ccccc2c1 (centres unmarked) [Compound 1-206, (1-{4′-[3-Methyl-4-(1-naphthalen-2-yl-ethylamino)-isoxazol-5-yl]-biphenyl-4-yl}-cyclopropyl)-acetic acid] |
| < 300 nM | Cc1noc(-c2ccc(-c3ccc(C4(CC(=O)O)CC4)cc3)cc2)c1C(O)CCCCc1ccccc1 (centres unmarked) [Compound 1-207, (1-{4′-[4-(1-Hydroxy-5-phenyl-pentyl)-3-methyl-isoxazol-5-yl]-biphenyl-4-yl}-cyclopropyl)-acetic acid] |
| < 300 nM | Cc1noc(-c2ccc(-c3ccc(C4(CC(=O)O)CC4)cc3)cc2)c1C(O)CCCCc1ccc(Cl)c(Cl)c1 (centres unmarked) [Compound 1-208, [1-(4′-{4-[5-(3,4-Dichloro-phenyl)-1-hydroxy-pentyl]-3-methyl-isoxazol-5-yl}-biphenyl-4-yl)-cyclopropyl]-acetic acid] |
| 300 to 1000 nM | COc1ccc(CCC(C)Nc2c(C)noc2-c2ccc(-c3ccc(C4(CC(=O)O)CC4)cc3)cc2)cc1 (centres unmarked) [Compound 1-211, [1-(4′-{4-[3-(4-Methoxy-phenyl)-1-methyl-propylamino]-3-methyl-isoxazol-5-yl}-biphenyl-4-yl)-cyclopropyl]-acetic acid] |
| 1000 to 50000 nM | Cc1noc(-c2ccc(-c3ccc(C4(C(=O)O)CC4)cc3)cc2)c1Nc1ncnc2scc(C)c12 [Compound 1-212, 1-{4′-[3-Methyl-4-(5-methyl-thieno[2,3-d]pyrimidin-4-ylamino)-isoxazol-5-yl]-biphenyl-4-yl}-cyclopropanecarboxylic acid] |
| 300 to 1000 nM | Cc1noc(-c2ccc(-c3ccc(C4(CC(=O)O)CC4)cc3)cc2)c1NC(CCc1ccccc1)c1ccccc1 (centres unmarked) [Compound 1-213, (1-{4′-[4-(1,3-Diphenyl-propylamino)-3-methyl-isoxazol-5-yl]-biphenyl-4-yl}-cyclopropyl)-acetic acid] |
